Measurements reported in PubChem BioAssay AID256 (DTP/NCI, 2004).
Several values for one entry are separate records, joined by “and”; a condition that tells them apart may be missing. Equal values may be shown once. Toxic doses and inconclusive results are not listed. How the source made its calls: active means survival T/C of 150% or more; inactive means T/C below 125% in these data.

Tested on: CD2F1 mice, L1210 leukemia ip, survival T/C
Assay: NCI In Vivo Anticancer Drug Screen. Data for tumor model L1210 Leukemia (intraperitoneal) in CD2F1 (CDF1) mice
Conditions: higher = longer survival
Method in brief: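 Activity against a transplanted murine tumor was judged by comparing the compound group with a vehicle group. The outcome in the treated animals was divided by that in the controls.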

[1] = endpoint: mean survival time, dose: 100.0 mg/kg/injection, schedule: Q04DX003 (ip), vehicle: saline with Tween-80
[2] = endpoint: mean survival time, dose: 200.0 mg/kg/injection, schedule: Q04DX003 (ip), vehicle: saline with Tween-80
[3] = endpoint: mean survival time, dose: 200.0 mg/kg/injection, schedule: Q01DX009 (ip), vehicle: saline with Tween-80

Measured: T/C

COc1cccc2c1C(=O)c1c(O)c3c(c(O)c1C2=O)C[C@@](O)(C(C)=O)C[C@@H]3OC1CC(N)C(O)C(C)O1 (stereo not given in full)
inactive: endpoint: mean survival time, dose: 0.06 mg/kg/injection, schedule: Q01DX009 (ip), vehicle: saline 103 % of control | endpoint: mean survival time, dose: 0.13 mg/kg/injection, schedule: Q01DX009 (ip), vehicle: saline 103 % of control | endpoint: mean survival time, dose: 0.2 mg/kg/injection, schedule: Q01DX009 (ip), vehicle: saline 105 % of control | endpoint: mean survival time, dose: 0.2 mg/kg/injection, schedule: Q01DX009 (ip), vehicle: water 100 % of control and 103 % of control and 108 % of control | endpoint: mean survival time, dose: 0.25 mg/kg/injection, schedule: Q01DX005 (ip), vehicle: water 101 % of control | endpoint: mean survival time, dose: 0.25 mg/kg/injection, schedule: Q01DX009 (ip), vehicle: saline 113 % of control and 120 % of control and 105 % of control | endpoint: mean survival time, dose: 0.39 mg/kg/injection, schedule: Q01DX009 (ip), vehicle: saline 119 % of control and 106 % of control | endpoint: mean survival time, dose: 0.39 mg/kg/injection, schedule: Q01DX009 (ip), vehicle: water 101 % of control and 110 % of control and 112 % of control | endpoint: mean survival time, dose: 0.5 mg/kg/injection, schedule: Q01DX005 (ip), vehicle: water 117 % of control and 108 % of control and 110 % of control | endpoint: mean survival time, dose: 0.5 mg/kg/injection, schedule: Q04DX003 (ip), vehicle: water 116 % of control and 98 % of control | endpoint: mean survival time, dose: 0.78 mg/kg/injection, schedule: Q01DX009 (ip), vehicle: saline 116 % of control | endpoint: mean survival time, dose: 0.78 mg/kg/injection, schedule: Q01DX009 (ip), vehicle: water 117 % of control and 120 % of control and 103 % of control | endpoint: mean survival time, dose: 1.0 mg/kg/injection, schedule: Q01DX005 (ip), vehicle: water 118 % of control and 112 % of control | endpoint: mean survival time, dose: 1.0 mg/kg/injection, schedule: Q03DX003 (ip), vehicle: saline 119 % of control | endpoint: mean survival time, dose: 1.0 mg/kg/injection, schedule: Q04DX003 (ip), vehicle: water 105 % of control | endpoint: mean survival time, dose: 1.08 mg/kg/injection, schedule: Q04DX003 (ip), vehicle: saline 120 % of control | endpoint: mean survival time, dose: 1.25 mg/kg/injection, schedule: Q07DX Z (oral), vehicle: clinical formulation 97 % of control | endpoint: mean survival time, dose: 1.25 mg/kg/injection, schedule: Q#B X Z (oral), vehicle: clinical formulation 102 % of control | endpoint: mean survival time, dose: 1.56 mg/kg/injection, schedule: Q01DX009 (ip), vehicle: saline 117 % of control | endpoint: mean survival time, dose: 1.56 mg/kg/injection, schedule: Q01DX009 (ip), vehicle: water 121 % of control and 106 % of control | endpoint: mean survival time, dose: 1.68 mg/kg/injection, schedule: Q01DX001 (ip), vehicle: water 124 % of control | endpoint: mean survival time, dose: 1.8 mg/kg/injection, schedule: Q04DX003 (ip), vehicle: saline 120 % of control | endpoint: mean survival time, dose: 2.0 mg/kg/injection, schedule: Q01DX005 (ip), vehicle: water 121 % of control and 124 % of control | endpoint: mean survival time, dose: 2.0 mg/kg/injection, schedule: Q03DX003 (ip), vehicle: saline 122 % of control | endpoint: mean survival time, dose: 2.0 mg/kg/injection, schedule: Q04DX003 (ip), vehicle: water 123 % of control and 102 % of control | endpoint: mean survival time, dose: 2.5 mg/kg/injection, schedule: Q01DX001 (ip), vehicle: water 118 % of control and 123 % of control and 112 % of control | endpoint: mean survival time, dose: 2.5 mg/kg/injection, schedule: Q07DX Z (oral), vehicle: clinical formulation 97 % of control | endpoint: mean survival time, dose: 2.5 mg/kg/injection, schedule: Q#B X Z (oral), vehicle: clinical formulation 94 % of control | endpoint: mean survival time, dose: 3.0 mg/kg/injection, schedule: Q01DX009 (ip), vehicle: saline 117 % of control | endpoint: mean survival time, dose: 3.0 mg/kg/injection, schedule: Q04DX003 (ip), vehicle: saline 115 % of control | endpoint: mean survival time, dose: 3.13 mg/kg/injection, schedule: Q01DX009 (ip), vehicle: water 117 % of control and 96 % of control | endpoint: mean survival time, dose: 4.0 mg/kg/injection, schedule: Q01DX005 (ip), vehicle: water 120 % of control and 105 % of control | endpoint: mean survival time, dose: 4.0 mg/kg/injection, schedule: Q01DX007 (ip), vehicle: saline 110 % of control | endpoint: mean survival time, dose: 4.0 mg/kg/injection, schedule: Q03DX003 (ip), vehicle: saline 116 % of control | endpoint: mean survival time, dose: 4.0 mg/kg/injection, schedule: Q04DX003 (ip), vehicle: water 100 % of control | endpoint: mean survival time, dose: 4.67 mg/kg/injection, schedule: Q01DX009 (ip), vehicle: water 108 % of control | endpoint: mean survival time, dose: 5.0 mg/kg/injection, schedule: Q01DX001 (ip), vehicle: water 120 % of control and 104 % of control | endpoint: mean survival time, dose: 5.0 mg/kg/injection, schedule: Q04DX003 (ip), vehicle: saline 120 % of control | endpoint: mean survival time, dose: 5.0 mg/kg/injection, schedule: Q07DX Z (oral), vehicle: clinical formulation 97 % of control | endpoint: mean survival time, dose: 5.0 mg/kg/injection, schedule: Q#B X Z (oral), vehicle: clinical formulation 97 % of control | endpoint: mean survival time, dose: 6.25 mg/kg/injection, schedule: Q01DX009 (ip), vehicle: saline 97 % of control | endpoint: mean survival time, dose: 8.0 mg/kg/injection, schedule: Q01DX001 (ip), vehicle: water 109 % of control | endpoint: mean survival time, dose: 8.0 mg/kg/injection, schedule: Q01DX009 (ip), vehicle: saline 100 % of control | endpoint: mean survival time, dose: 8.0 mg/kg/injection, schedule: Q04DX003 (ip), vehicle: saline 119 % of control | endpoint: mean survival time, dose: 8.0 mg/kg/injection, schedule: Q04DX003 (ip), vehicle: water 123 % of control | endpoint: mean survival time, dose: 10.0 mg/kg/injection, schedule: Q01DX001 (ip), vehicle: water 118 % of control and 112 % of control | endpoint: mean survival time, dose: 10.0 mg/kg/injection, schedule: Q07DX Z (oral), vehicle: clinical formulation 102 % of control | endpoint: mean survival time, dose: 10.0 mg/kg/injection, schedule: Q#B X Z (oral), vehicle: clinical formulation 108 % of control | endpoint: mean survival time, dose: 20.0 mg/kg/injection, schedule: Q01DX001 (ip), vehicle: water 89 % of control and 96 % of control | endpoint: mean survival time, dose: 20.0 mg/kg/injection, schedule: Q07DX Z (oral), vehicle: clinical formulation 100 % of control | endpoint: mean survival time, dose: 20.0 mg/kg/injection, schedule: Q#B X Z (oral), vehicle: clinical formulation 94 % of control | endpoint: mean survival time, dose: 40.0 mg/kg/injection, schedule: Q01DX001 (ip), vehicle: saline 62 % of control | endpoint: mean survival time, dose: 40.0 mg/kg/injection, schedule: Q07DX Z (oral), vehicle: clinical formulation 103 % of control | endpoint: mean survival time, dose: 40.0 mg/kg/injection, schedule: Q#B X Z (oral), vehicle: clinical formulation 103 % of control | endpoint: mean survival time, dose: 39.0 micrograms/kg/injection, schedule: Q01DX010 (oral), vehicle: saline 102 % of control | endpoint: mean survival time, dose: 78.0 micrograms/kg/injection, schedule: Q01DX010 (oral), vehicle: saline 102 % of control | endpoint: mean survival time, dose: 156.0 micrograms/kg/injection, schedule: Q01DX010 (oral), vehicle: saline 98 % of control | endpoint: mean survival time, dose: 313.0 micrograms/kg/injection, schedule: Q01DX010 (oral), vehicle: saline 102 % of control | endpoint: mean survival time, dose: 625.0 micrograms/kg/injection, schedule: Q01DX010 (oral), vehicle: saline 104 % of control | endpoint: mean survival time, dose: 1250.0 micrograms/kg/injection, schedule: Q01DX010 (oral), vehicle: saline 101 % of control | endpoint: median survival time, dose: 0.25 mg/kg/injection, schedule: Q01DX005 (iv), vehicle: water 112 % of control | endpoint: median survival time, dose: 0.5 mg/kg/injection, schedule: Q01DX005 (iv), vehicle: water 100 % of control | endpoint: median survival time, dose: 0.5 mg/kg/injection, schedule: Q04DX003 (ip), vehicle: water 99 % of control | endpoint: median survival time, dose: 1.0 mg/kg/injection, schedule: Q01DX005 (iv), vehicle: water 106 % of control | endpoint: median survival time, dose: 1.0 mg/kg/injection, schedule: Q04DX003 (ip), vehicle: water 99 % of control | endpoint: median survival time, dose: 2.0 mg/kg/injection, schedule: Q01DX005 (iv), vehicle: water 112 % of control | endpoint: median survival time, dose: 2.0 mg/kg/injection, schedule: Q04DX003 (ip), vehicle: water 100 % of control | endpoint: median survival time, dose: 4.0 mg/kg/injection, schedule: Q04DX003 (ip), vehicle: water 107 % of control | endpoint: median survival time, dose: 16.0 mg/kg/injection, schedule: Q04DX003 (ip), vehicle: water 109 % of control

O=C1OC(=O)C2C3OC(C4CN=NC43)C12 (stereo not given)
inactive: endpoint: mean survival time, dose: 100.0 mg/kg/injection, schedule: Q04DX002 (ip), vehicle: saline with Tween-80 112 % of control | endpoint: mean survival time, dose: 200.0 mg/kg/injection, schedule: Q04DX002 (ip), vehicle: saline with Tween-80 118 % of control

O=P(NC1CCCCC1)(NC1CCCCC1)NC1CCCCC1
inactive: endpoint: mean survival time, dose: 50.0 mg/kg/injection, schedule: Q04DX003 (ip), vehicle: saline with Tween-80 93 % of control | [1] 90 % of control | [2] 91 % of control

F/C(=C\c1ccccc1)c1ccccc1
inactive: endpoint: mean survival time, dose: 50.0 mg/kg/injection, schedule: Q01DX001 (ip), vehicle: saline with Tween-80 110 % of control | endpoint: mean survival time, dose: 100.0 mg/kg/injection, schedule: Q01DX001 (ip), vehicle: saline with Tween-80 108 % of control | endpoint: mean survival time, dose: 200.0 mg/kg/injection, schedule: Q01DX001 (ip), vehicle: saline with Tween-80 101 % of control

O=C(CNC(=O)Nc1cccc([N+](=O)[O-])c1)N/N=C/C=C/c1ccccc1
inactive: endpoint: mean survival time, dose: 50.0 mg/kg/injection, schedule: Q01DX009 (ip), vehicle: saline with Tween-80 88 % of control | [3] 88 % of control

C1=CC2c3ccccc3C1C1C=CC21 (stereo not given)
inactive: endpoint: mean survival time, dose: 100.0 mg/kg/injection, schedule: Q01DX009 (ip), vehicle: saline with Tween-80 95 % of control | [1] 91 % of control | [3] 108 % of control | [2] 93 % of control | endpoint: mean survival time, dose: 400.0 mg/kg/injection, schedule: Q01DX009 (ip), vehicle: saline with Tween-80 93 % of control | endpoint: mean survival time, dose: 400.0 mg/kg/injection, schedule: Q04DX003 (ip), vehicle: saline with Tween-80 93 % of control
